Measured values: US6239171A, “Tocotrienols and tocotrienol-like compounds and methods for their use” (Lipogenics, Inc., priority 1998, dated 2001)

How the values were obtained:
[1] = system: cholesterol 7α-hydroxylase; test: Hepatic cholesterol 7α-hydroxylase activity in chickens fed supplemented diets; format: in vivo, chicken; details: control diet + 50 ppm, 4 weeks
Protocol: (§1) This example measured the effects of the TRF and its components on the hepatic enzymatic activity of HMG-CoA reductase and cholesterol 7α-hydroxylase. […] The amount of feed consumed ranged from 11.19-11.60 g per chicken and the feeding period was 4 weeks. The birds were fasted for a period of 36 hours and refed for 48 hours prior to sacrifice (at 0800 hours).

[2] = system: hypercholesterolemic swine; test: Total cholesterol, triglyceride and glucose concentrations in tissues of hypercholesterolemic swine; format: in vivo; details: control diet + 50 ppm, 42 days
Protocol: Each group of three 5-month old swine was administered either a control diet or a control diet supplemented with 50 ppm of TRF or 50 ppm of an individual tocotrienol. […] After a 12 hour fast, serum and plasma samples were taken a 0 hrs, 21 days and 42 days from the start of the feeding period. After taking serum and plasma samples from the pigs at the end of the 42 day period, all of the swine were fasted for a total of 40 hours, followed by a 48 hour refeeding period. One swine from each group was sacrificed at that time and the liver, intestine, lung, heart, loin muscle, adipose tissue and ham muscle were removed.
We next determined the effect of tocotrienols on the total cholesterol, triglyceride and glucose concentrations in various tissues of hypercholesterolemic swine.

[3] = system: chickens; test: Antibody titers to sheep red blood cells in chickens; format: in vivo, chicken; details: control diet + 50 ppm, 4 weeks, sheep red blood cells i.p.
Protocol: The model for this study was 6-week old female white leghorn chickens. Each group of 12 chickens was fed an unsupplemented chicken diet or a control diet supplemented with 50 ppm of a tocotrienol or 100 ppm of a commercially available hypercholesterolemic agent (Geraniol or Lovastatin). […] The chickens were fed over a period of 4 weeks, then the blood was drawn. The antibody response was determined by injecting the chickens i.p. with 0.5 ml of a 5% suspension of sheep red blood cells (RBCs) in PBS (v/v) which were previously washed three times. […] Relative IgG levels were determined by using 2-mercaptoethanol preincubation for 30 min. The relative IgM levels were calculated by subtracting the IgG antibody levels from total antibody levels. All antibody levels are expressed as the log base 2 of the highest titer that was needed to hemagglutinate an equal volume of 0.5% RBC suspension.

[4] = system: chickens; test: Serum cholesterol, apolipoproteins, triglycerides and glucose in chickens fed supplemented diets; format: in vivo, chicken; details: 4 weeks
Description: All assays conducted on chicken or swine serum were done following the protocols described in A. A. Qureshi et al., "Lowering Of Serum Cholesterol In Hypercholesterolemic Humans By Tocotrienols" (Palmvitee), Am. J. Clin. Nutr., 53, pp. 1021S-26S (1991). All enzymatic assays were done following the protocols described in A. A. Qureshi et al., "Effects of Cereals and Culture Filtrate of Trichoderma viride on Lipid Metabolism of Swine", Lipids, 17, pp. 924 (1982). Plasma insulin, glucagon and TNF levels were measured using radioinnumoassay kits from Ventrex Laboratories, Inc. (Portland, Me.), ICN Biomedicals, Inc. (Costa Mesa, Calif.) and Genzyme Corp. (Cambridge, Mass.), respectively. […]
Each group of 6 chickens (6-week old female while leghorn) was administered the chick mash diet described in Example 5, supplemented with one of three different amounts of waxes (sterols), 50 ppm of TRF (prepared as in Example 2) or 5% equivalent of the methanol insoluble fraction Louisiana rice bran oil. […] The birds were fasted for a period of 14 hours prior to sacrifice (at 0800 hours). […]

[5] = molecular target: T1, HMG-CoA reductase (Homo sapiens, UniProt P04035); test: Hepatic HMG-CoA reductase activity in chickens fed supplemented diets; format: in vivo, chicken; details: control diet + 50 ppm, 4 weeks
T1 construct: hepatocytes isolated from livers of 8-week old female chickens; endogenous in cells; host or cells: primary chicken hepatocytes
T1 sequence (P04035 1-888): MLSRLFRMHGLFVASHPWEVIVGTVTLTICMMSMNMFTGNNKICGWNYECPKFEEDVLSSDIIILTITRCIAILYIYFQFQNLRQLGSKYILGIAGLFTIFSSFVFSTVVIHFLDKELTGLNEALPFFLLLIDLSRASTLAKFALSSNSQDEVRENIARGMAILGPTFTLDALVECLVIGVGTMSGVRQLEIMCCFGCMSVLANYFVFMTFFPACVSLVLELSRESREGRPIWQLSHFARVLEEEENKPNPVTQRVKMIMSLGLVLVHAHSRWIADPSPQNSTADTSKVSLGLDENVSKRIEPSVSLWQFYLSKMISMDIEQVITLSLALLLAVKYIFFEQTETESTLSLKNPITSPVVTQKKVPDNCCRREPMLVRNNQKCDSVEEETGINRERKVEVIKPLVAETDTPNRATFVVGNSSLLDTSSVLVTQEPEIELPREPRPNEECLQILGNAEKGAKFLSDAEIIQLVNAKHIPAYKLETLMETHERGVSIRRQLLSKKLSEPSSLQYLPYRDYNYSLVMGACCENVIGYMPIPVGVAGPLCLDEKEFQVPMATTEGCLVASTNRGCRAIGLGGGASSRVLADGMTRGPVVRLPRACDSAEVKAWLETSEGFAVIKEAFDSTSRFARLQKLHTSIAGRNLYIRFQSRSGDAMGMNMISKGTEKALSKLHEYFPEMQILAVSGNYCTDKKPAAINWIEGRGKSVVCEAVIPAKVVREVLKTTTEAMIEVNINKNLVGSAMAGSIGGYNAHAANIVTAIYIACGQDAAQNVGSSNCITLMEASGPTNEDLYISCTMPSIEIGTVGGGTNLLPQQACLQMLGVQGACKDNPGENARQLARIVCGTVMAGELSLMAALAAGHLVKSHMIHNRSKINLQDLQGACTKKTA
Protocol: as §1

Question: What does the source list for `CC(C)=CCC/C(C)=C/CC/C(C)=C/CCC1(C)CCc2cc(O)ccc2O1` (centres unmarked) [P21, 3,4-dihydro-2-methyl-2-(4,8,12-trimethyltrideca-3' (E),7'(E),11'-trienyl)-2H-1-benzopyran-6-ol]?
Answer: Cholesterol 7α-Hydroxylase, percentage of control [1]: 112.43%; Cholesterol 7α-hydroxylase [1]: 11.49 nmol/min/mg; TOTAL CHOLESTEROL CONCENTRATION, Adipose Tissue [2]: 89.85 mg/100 gm; TOTAL CHOLESTEROL CONCENTRATION, Ham Muscle [2]: 79.51 mg/100 gm; TOTAL CHOLESTEROL CONCENTRATION, Heart [2]: 53.63 mg/100 gm; TOTAL CHOLESTEROL CONCENTRATION, Intestine [2]: 180.59 mg/100 gm; TOTAL CHOLESTEROL CONCENTRATION, Liver [2]: 136.70 mg/100 gm; TOTAL CHOLESTEROL CONCENTRATION, Loin Muscle [2]: 100.58 mg/100 gm; TOTAL CHOLESTEROL CONCENTRATION, Lung [2]: 75.68 mg/100 gm; TOTAL CHOLESTEROL, Adipose Tissue, percentage of control [2]: 82.13%; TOTAL CHOLESTEROL, Ham Muscle, percentage of control [2]: 79.51%; TOTAL CHOLESTEROL, Heart, percentage of control [2]: 83.13%; TOTAL CHOLESTEROL, Intestine, percentage of control [2]: 83.80%; TOTAL CHOLESTEROL, Liver, percentage of control [2]: 67.81%; TOTAL CHOLESTEROL, Loin Muscle, percentage of control [2]: 84.09%; TOTAL CHOLESTEROL, Lung, percentage of control [2]: 74.39%; TOTAL GLUCOSE CONCENTRATION, Adipose Tissue [2]: 16.67 mg/100 gm; TOTAL GLUCOSE CONCENTRATION, Ham Muscle [2]: 54.01 mg/100 gm; TOTAL GLUCOSE CONCENTRATION, Heart [2]: 44.17 mg/100 gm; TOTAL GLUCOSE CONCENTRATION, Intestine [2]: 62.50 mg/100 gm; TOTAL GLUCOSE CONCENTRATION, Liver [2]: 374.22 mg/100 gm; TOTAL GLUCOSE CONCENTRATION, Loin Muscle [2]: 55.45 mg/100 gm; TOTAL GLUCOSE CONCENTRATION, Lung [2]: 61.92 mg/100 gm; TOTAL GLUCOSE, Adipose Tissue, percentage of control [2]: 90.89%; TOTAL GLUCOSE, Ham Muscle, percentage of control [2]: 100.35%; TOTAL GLUCOSE, Heart, percentage of control [2]: 89.69%; TOTAL GLUCOSE, Intestine, percentage of control [2]: 86.84%; TOTAL GLUCOSE, Liver, percentage of control [2]: 92.35%; TOTAL GLUCOSE, Loin Muscle, percentage of control [2]: 77.84%; TOTAL GLUCOSE, Lung, percentage of control [2]: 92.51%; TOTAL TRIGLYCERIDES CONCENTRATION, Adipose Tissue [2]: 282.82 mg/100 gm; TOTAL TRIGLYCERIDES CONCENTRATION, Ham Muscle [2]: 182.16 mg/100 gm; TOTAL TRIGLYCERIDES CONCENTRATION, Heart [2]: 142.38 mg/100 gm; TOTAL TRIGLYCERIDES CONCENTRATION, Intestine [2]: 347.75 mg/100 gm; TOTAL TRIGLYCERIDES CONCENTRATION, Liver [2]: 386.25 mg/100 gm; TOTAL TRIGLYCERIDES CONCENTRATION, Loin Muscle [2]: 194.75 mg/100 gm; TOTAL TRIGLYCERIDES CONCENTRATION, Lung [2]: 165.47 mg/100 gm; TOTAL TRIGLYCERIDES, Adipose Tissue, percentage of control activity [2]: 64.91%; TOTAL TRIGLYCERIDES, Ham Muscle, percentage of control activity [2]: 98.03%; TOTAL TRIGLYCERIDES, Heart, percentage of control activity [2]: 98.72%; TOTAL TRIGLYCERIDES, Intestine, percentage of control activity [2]: 97.24%; TOTAL TRIGLYCERIDES, Liver, percentage of control activity [2]: 89.96%; TOTAL TRIGLYCERIDES, Loin Muscle, percentage of control activity [2]: 88.65%; TOTAL TRIGLYCERIDES, Lung, percentage of control activity [2]: 96.22%; IgG antibody titers in serum [3]: 1.50 ± 1.18 Log 2; IgM antibody titers in serum [3]: 7.17 Log 2; Total Ab titers in serum [3]: 8.67 ± 1.92 Log 2; increase in the HDL-/LDL-cholesterol ratio ([4]; 50 ppm in diet): > 100%; rank as cholesterol inhibitor among compounds tested (in words) ([4]; 50 ppm in diet): most potent cholesterol inhibitors; APO A1, percentage of control ([4]; control diet + 50 ppm): 98.79%; APO A1 in serum ([4]; control diet + 50 ppm): 138.4 mg/100 ml; APO B in serum ([4]; control diet + 50 ppm): 25.40 mg/100 ml; APO B, percentage of control ([4]; control diet + 50 ppm): 76.74%; DL-Cholesterol/Total Cholesterol ([4]; control diet + 50 ppm): 0.74; DL-Cholesterol/Total Cholesterol, percentage of control ([4]; control diet + 50 ppm): 126.50%; Glucose in serum ([4]; control diet + 50 ppm): 198.80 mg/100 ml; Glucose, percentage of control ([4]; control diet + 50 ppm): 88.63%; HDL-Cholesterol in serum ([4]; control diet + 50 ppm): 68.88 ± 1.52 mg/dL; HDL-Cholesterol, percentage of control ([4]; control diet + 50 ppm): 82.33%; HDL-Cholesterol/LDL-Cholesterol ([4]; control diet + 50 ppm): 3.11; HDL-Cholesterol/LDL-Cholesterol, percentage of control ([4]; control diet + 50 ppm): 204.60%; LDL-Cholesterol in serum ([4]; control diet + 50 ppm): 22.16 ± 0.57 mg/dL; LDL-Cholesterol, percentage of control ([4]; control diet + 50 ppm): 40.25%; Total Cholesterol in serum ([4]; control diet + 50 ppm): 92.91 ± 1.27 mg/dL; Total Cholesterol, percentage of control ([4]; control diet + 50 ppm): 65.08%; Triglycerides in serum ([4]; control diet + 50 ppm): 56.22 mg/100 ml; Triglycerides, percentage of control ([4]; control diet + 50 ppm): 75.94%; HMG-CoA Reductase, percentage of control [5]: 72.83%
